In PMC9981719, “A novel designed membrane-active peptide for the control of foodborne Salmonella enterica serovar Typhimurium” (Scientific Reports, 2023):
Where no end group is shown, it is not given here.

How the values were obtained:
S. Typhimurium H1-001 [1] = settings: checkerboard
Method: (§1) Effects of the combination of A11 with nisin against S. Typhimurium ATCC 13311 and 10 drug-resistant S. Typhimurium and S. enterica isolates were determined by the checkerboard titration method. Briefly, 10 drug-resistant S. Typhimurium were grown to a concentration of 1 × 10^7 CFU/ml in fresh TSB. Aliquots (25 µl) of nisin (final concentrations of 0.5–16 mg/ml) and A11 (final concentrations of 0.98–250 µg/ml) were added into 96-well plates containing 50 µl of bacterial suspension and cultured at 37 °C. […] ICA is the concentration required to produce the same effect as compound A when used alone, ICB is the concentration required to produce the same effect as compound B when used alone. The CI results were interpreted as follows: a CI of less than 1 indicates synergistic effect, a CI equal to 1 indicates additive effect, and a CI of more than 1 indicates antagonistic effect.

S. Typhimurium H1-006 [2] = settings: checkerboard
Method: as §1

S. Typhimurium H1-062 [3] = settings: checkerboard
Method: as §1

S. Typhimurium H1-041 [4] = settings: checkerboard
Method: as §1

S. Typhimurium H1-015 [5] = settings: checkerboard
Method: as §1

4,5,12:i:- H2-039 [6] = settings: checkerboard
Method: as §1

4,5,12:i:- H2-042 [7] = settings: checkerboard
Method: as §1

4,5,12:i:- H2-089 [8] = settings: checkerboard
Method: as §1

S. Typhimurium H1-011 [9] = settings: checkerboard
Method: as §1

4,5,12:i:- H1-100 [10] = settings: checkerboard
Method: as §1

S. Typhimurium ATCC13311 = settings: checkerboard, TSB, 37 °C, 24 h
Method: as §1

S. Typhimurium H1-001 [11] = assay type: cell-based, Salmonella enterica serovar Typhimurium; settings: strain H1-001
Source text: (§2) All tests were done in triplicate.

[12] = system: Salmonella Typhimurium ATCC 13311; assay type: cell-based, Salmonella enterica serovar Typhimurium; settings: broth microdilution in MHB, 37 °C, 24 h, visible inspection, triplicate
Source text: as §2

S. Typhimurium H1-015 [13] = assay type: cell-based, Salmonella enterica serovar Typhimurium; settings: strain H1-015
Source text: as §2

S. Typhimurium H1-011 [14] = assay type: cell-based, Salmonella enterica serovar Typhimurium; settings: strain H1-011
Source text: as §2

S. Typhimurium H1-006 [15] = assay: MIC/MBC against drug-resistant isolate; assay type: cell-based, Salmonella enterica serovar Typhimurium; settings: strain H1-006
Source text: as §2

S. Typhimurium H1-062 [16] = assay: MIC/MBC against drug-resistant isolate; assay type: cell-based, Salmonella enterica serovar Typhimurium; settings: strain H1-062
Source text: as §2

S. Typhimurium H1-041 [17] = assay: MIC/MBC against drug-resistant isolate; assay type: cell-based, Salmonella enterica serovar Typhimurium; settings: strain H1-041
Source text: as §2

[18] = system: S. Typhimurium ATCC 13311 and 10 drug-resistant S. Typhimurium and S. enterica isolates; assay: Checkerboard titration, A11 with nisin, summary over strains; assay type: cell-based, Salmonella enterica; settings: summary over tested strains
Method: as §1

4,5,12:i:- H2-010 = assay type: cell-based, Salmonella enterica 4,5,12:i:-; settings: strain H2-010
Source text: as §2

4,5,12:i:- H2-067 = assay type: cell-based, Salmonella enterica 4,5,12:i:-; settings: strain H2-067
Source text: as §2

4,5,12:i:- H2-071 = assay type: cell-based, Salmonella enterica 4,5,12:i:-; settings: strain H2-071
Source text: as §2

4,5,12:i:- H2-047 = assay type: cell-based, Salmonella enterica 4,5,12:i:-; settings: strain H2-047
Source text: as §2

4,5,12:i:- H2-039 [19] = assay type: cell-based, Salmonella enterica 4,5,12:i:-; settings: strain H2-039
Source text: as §2

4,5,12:i:- H2-042 [20] = assay type: cell-based, Salmonella enterica 4,5,12:i:-; settings: strain H2-042
Source text: as §2

4,5,12:i:- H2-089 [21] = assay type: cell-based, Salmonella enterica 4,5,12:i:-; settings: strain H2-089
Source text: as §2

4,5,12:i:- H1-100 [22] = assay type: cell-based, Salmonella enterica 4,5,12:i:-; settings: strain H1-100
Source text: as §2

4,5,12:i:- H1-024 = assay type: cell-based, Salmonella enterica 4,5,12:i:-; settings: strain H1-024
Source text: as §2

4,5,12:i:- H2-049 = assay type: cell-based, Salmonella enterica 4,5,12:i:-; settings: strain H2-049
Source text: as §2

[23] = system: 16 drug-resistant S. Typhimurium and 4,5,12:i:- isolates from Thailand; assay type: cell-based, Salmonella enterica; settings: summary over 16 isolates; nisin up to maximum concentration of 16,000 µg/ml
Source text: as §2

Nisin (ITSISLCTPGCKTGALMGCNMKTATCHCSIHVSK; not fully specified (some residues, bridges); also: lantibiotic nisin-A: thioether (lanthionine) rings and dehydrated residues, places not given here; UniProt P13068 24-57, looked up) [bacteriocin, lantibiotic produced by Lactococcus lactis subsp. lactis, approved food preservative]
MIC (combination) (S. Typhimurium H1-001 [1]; A11 combined with nisin): 500 µg/mL | MIC (alone) (S. Typhimurium H1-001 [1]; TSB, 37 °C, 24 h): > 16,000 µg/ml | MIC (combination) (S. Typhimurium H1-006 [2]; A11 combined with nisin): 500 µg/mL | MIC (alone) (S. Typhimurium H1-006 [2]; TSB, 37 °C, 24 h): > 16,000 µg/ml | MIC (combination) (S. Typhimurium H1-062 [3]; A11 combined with nisin): 500 µg/mL | MIC (alone) (S. Typhimurium H1-062 [3]; TSB, 37 °C, 24 h): > 16,000 µg/ml | MIC (combination) (S. Typhimurium H1-041 [4]; A11 combined with nisin): 500 µg/mL | MIC (alone) (S. Typhimurium H1-041 [4]; TSB, 37 °C, 24 h): > 16,000 µg/ml | MIC (combination) (S. Typhimurium H1-015 [5]; A11 combined with nisin): 500 µg/mL | MIC (alone) (S. Typhimurium H1-015 [5]; TSB, 37 °C, 24 h): > 16,000 µg/ml | MIC (combination) (4,5,12:i:- H2-039 [6]; A11 combined with nisin): 500 µg/mL | MIC (alone) (4,5,12:i:- H2-039 [6]; TSB, 37 °C, 24 h): > 16,000 µg/ml | MIC (combination) (4,5,12:i:- H2-042 [7]; A11 combined with nisin): 500 µg/mL | MIC (alone) (4,5,12:i:- H2-042 [7]; TSB, 37 °C, 24 h): > 16,000 µg/ml | MIC (combination) (4,5,12:i:- H2-089 [8]; A11 combined with nisin): 500 µg/mL | MIC (alone) (4,5,12:i:- H2-089 [8]; TSB, 37 °C, 24 h): > 16,000 µg/ml | MIC (combination) (S. Typhimurium H1-011 [9]; A11 combined with nisin): 500 µg/mL | MIC (alone) (S. Typhimurium H1-011 [9]; TSB, 37 °C, 24 h): > 16,000 µg/ml | MIC (combination) (4,5,12:i:- H1-100 [10]; A11 combined with nisin): 500 µg/mL | MIC (alone) (4,5,12:i:- H1-100 [10]; TSB, 37 °C, 24 h): > 16,000 µg/ml | MIC (combination) (S. Typhimurium ATCC13311; A11 combined with nisin): 4000 µg/mL | MIC (alone) (S. Typhimurium ATCC13311): 16,000 µg/ml | MIC (S. Typhimurium H1-001 [11]): > 16,000 µg/ml | MIC [12]: 16,000 µg/ml | MIC (S. Typhimurium H1-015 [13]): > 16,000 µg/ml | MIC (S. Typhimurium H1-011 [14]): > 16,000 µg/ml | MIC (S. Typhimurium H1-006 [15]): > 16,000 µg/ml | MIC (S. Typhimurium H1-062 [16]): > 16,000 µg/ml | MIC (S. Typhimurium H1-041 [17]): > 16,000 µg/ml | MIC of nisin in combination with A11 [18]: 500 µg/mL | MIC (4,5,12:i:- H2-010): > 16,000 µg/ml | MIC (4,5,12:i:- H2-067): > 16,000 µg/ml | MIC (4,5,12:i:- H2-071): > 16,000 µg/ml | MIC (4,5,12:i:- H2-047): > 16,000 µg/ml | MIC (4,5,12:i:- H2-039 [19]): > 16,000 µg/ml | MIC (4,5,12:i:- H2-042 [20]): > 16,000 µg/ml | MIC (4,5,12:i:- H2-089 [21]): > 16,000 µg/ml | MIC (4,5,12:i:- H1-100 [22]): > 16,000 µg/ml | MIC (4,5,12:i:- H1-024): > 16,000 µg/ml | MIC (4,5,12:i:- H2-049): > 16,000 µg/ml | MICs against the 16 drug-resistant S. enterica isolates [23]: > 16,000 µg/ml
